Entries after “also recorded” stand apart in the source; their conditions may differ.
Assays:
Type in all cases: cell-based
[1] = tested on: A498 cells; test: Cell viability assay (WST-1), A498 cells, AC1903 alone; settings: 0.1–100 μM, 8 h
Procedure: (§1) Cell viability assays were carried out using WST-1 Cell Proliferation Reagent (Merck). A498 cells were plated onto clear 96-well plates at 4000 cells per well and left to adhere for 24 h. Media was then removed, and replaced with fresh media containing 100 nM EA, in presence of either DMSO or 0.1 to 100 μM AC1903. Control wells were treated with vehicle (DMSO) only. To exclude any potential cytotoxic effects of AC1903 itself, cells were incubated with 0.1 to 100 μM AC1903 in absence of EA. Cells were treated in triplicate. Cells were incubated with compounds for 8 h. After 8 h, treatment media was removed and media containing WST-1 reagent (10 μl reagent +100 μl media per well) was added to each well and incubated for 1.5 h at 37 °C. Blank wells contained media and WST-1 reagent (no cells). […] Absorbance was then read at 440 nm and 650 nm (reference wavelength). To analyze data, the value of the 650 nm was subtracted from that of the 440 nm reading. Values across triplicate wells were averaged, and the value from the blank wells subtracted to account for background absorbance. […]
(§2) Inhibition of G418-induced premature stop codon readthrough
(§3) A498 cytotoxicity . […] Cell viability was calculated as % of control, and the effect of AC1903 was compared to control (0 µM ) (scatter plots showing data from three independent experiments; bars represent mean ± SD; n = 3). […]

[2] = tested on: A498 cells; test: EA-mediated A498 cytotoxicity (WST-1 cell viability assay); settings: AC1903 100 μM; 100 nM EA; 8 h
Procedure: as §1, §2, §3

[3] = tested on: TC-71 cells (TP53 R213X); test: G418-induced PTC readthrough (full-length p53, capillary electrophoresis Western) in TC-71 cells; settings: without G418
Source text: Variation in PTC readthrough response has been reported among individuals or cell lines with different nonsense mutations. Although this in part highlights the importance of the stop codon and its surrounding sequence as well as the physical location of the nonsense mutation in the mRNA sequence, understanding the contribution of other underlying genetic variations becomes more complicated. To rule out the effect of the sequence and position of nonsense mutations on response variation to potential PTC readthrough modulators, we studied two cancer cell lines, DMS-114 and TC-71, with identical homozygous nonsense mutation R213X in their TP53 gene. […] To find out whether the reduced response to G418 in TC-71 cells was associated with lower intracellular levels of G418, we measured concentrations of G418 in both cell lines at 0, 8 and 24 h post exposure to G418 (100 μg/ml).
Figure 1 Effect of TRPC inhibitors on G418 induced PTC readthrough. A, DMS-114 and TC-71 cell lines with homozygous TP53 nonsense mutation (R213X) were exposed to indicated concentrations of G418 for 24 h and p53 levels (full-length, FL-p53; truncated, TR-p53) were measured. B, 100 μg/ml G418 was added to DMS-114 and TC-71 cells and its total intracellular levels were measured at indicated time points (n = 5; data normalized to the highest response in each experiment; bars represent mean ± SD). […]

c1ccc(Cn2c(NCc3ccco3)nc3ccccc32)cc1 [AC1903]
effect on viability of A498 cells [1]: not toxic; also recorded: did not affect viability | effect on EA-mediated A498 cytotoxicity [2]: inhibits EA-mediated; also recorded: inhibited EA-mediated A498 cytotoxicity | effect on PTC readthrough of AC1903 alone [3]: did not affect PTC readthrough
